The source of these data is patent publication US7951595B2, “Methods for screening modulators of SLC17-type anion transport activity” (National University Corporation Okayama University, priority 2007, dated 2011).

In one data set the test system is SLC17A9 mRNA. The experiment in a line: Knockdown of SLC17A9 by RNAi, SLC17A9 mRNA by real-time PCR. Format: cell-based. The settings on record: 25 nM rat SLC17A9 siRNA, cultured 3 days, versus control siRNA, FIG. 19(A). The method, then: (§1) Knockdown of SLC17A9 by RNAi was carried out as follows. A sequence for RNAi designed by Qiagen HP OnGuard siRNA Design was used. The nucleic acid sequence of the RNAi used was […] (SEQ ID NO: 15). This sequence and HiPerFect transfection reagent (Qiagen) were used for transfection of 25 nM AllStars negative control siRNA or 25 nM rat SLC17A9 siRNA, and the resultant was cultured for 3 days, to thereby perform knockdown of SLC17A9. […] The amounts of SCL17A9 mRNA in the knocked-down cells (RNAi) and control cells (control) were measured by real-time PCR, and as shown in FIG. 19(A), the amount of SLC17A9 mRNA was decreased by RNAi.

The next data set has as its system PC12 cells. The experiment in a line: KCl-dependent ATP release after SLC17A9 knockdown. In kind it is cell-based, rat. The settings on record: 25 nM siRNA, 3 days, KCl stimulus 30 minutes, FIG. 19(B). The method, then: as §1
The target of a further data set is T1, human SLC17A9 (Homo sapiens, UniProt Q9BYT1, N228S).
T1 construct: His6 (from pDEST10 vector); made in house; host or cells: insect cells, baculovirus system (Sf9 named for virus production)
T1 sequence (Q9BYT1 1-430 isoform Q9BYT1-2 N222S): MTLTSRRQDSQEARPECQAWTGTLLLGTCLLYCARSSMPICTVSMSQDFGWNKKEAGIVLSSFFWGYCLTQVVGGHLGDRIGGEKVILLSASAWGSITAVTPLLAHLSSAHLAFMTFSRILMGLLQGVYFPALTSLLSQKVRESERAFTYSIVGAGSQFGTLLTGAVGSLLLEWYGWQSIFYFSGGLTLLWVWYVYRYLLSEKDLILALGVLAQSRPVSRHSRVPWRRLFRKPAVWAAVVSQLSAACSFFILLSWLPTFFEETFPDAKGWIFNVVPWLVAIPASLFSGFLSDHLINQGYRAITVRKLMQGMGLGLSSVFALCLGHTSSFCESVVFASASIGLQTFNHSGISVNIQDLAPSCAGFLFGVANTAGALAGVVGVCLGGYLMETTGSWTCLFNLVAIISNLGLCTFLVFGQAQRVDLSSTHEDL
The experiment in a line: Nucleotide transport by human SLC17A9 reconstituted proteoliposomes (valinomycin-induced membrane potential, radiolabelled substrate). In kind it is biochemical. The settings on record: for uptake of ADP and GTP into SLC17A9 reconstituted proteoliposomes over time: 100 μM each, FIG. 16; for effect of nucleotides on ATP transport: nucleotide 1 mM, FIG. 15. The method, then:
10 μg of purified SLC17A9 and 0.5 mg of soybean-derived lipids were mixed and incubated at −80° C. for 5 minutes or more. The mixture was thawed quickly by holding the tube in the hands, and was diluted 60-fold with a buffer solution containing 20 mM MOPS-Tris (pH 7.0), 0.15M sodium acetate, 2 mM magnesium acetate and 0.5 mM DTT. This dilution was centrifuged at 200,000×g at 4° C. for one hour, the supernatant was discarded, and the precipitate was resuspended in a buffer solution containing 20 mM MOPS-Tris (pH 7.0), 0.15M sodium acetate, 2 mM magnesium acetate and 0.5 mM DTT, to obtain SLC17A9 reconstituted proteoliposomes. As a control, liposomes without SLC17A9 were used.
The nucleotide transport activity was measured by the following procedure. The reconstituted proteoliposomes were incubated in a buffer solution containing 20 mM MOPS-Tris (pH 7.0), 0.15M potassium acetate, 2 mM magnesium acetate and 4 mM potassium chloride, at 27° C. for 2 minutes, and valinomycin was added thereto to a final concentration of 2 μM. The mixture was incubated for further 2 minutes. The point of addition of 0.1 mM [α-^32P]ATP (3.7 GBq/mmol) was defined as the initiation of activity measurement. At a predetermined time point, 130 μL of the reaction liquid was recovered and centrifuged through a Sephadex G-50 (fine) spin column at 760×g for 2 minutes. The uptake of ATP was measured by measuring the radioactivity included in the reaction liquid that had passed through the column using a liquid scintillation counter. In the measurement of the transport activity for ADP and GTP, [2,8-^3H]ADP (0.37 GBq/mmol) and [α-^32P]GTP (3.7 GBq/mmol) were used instead of ATP as the substrate.
In an experiment for an inhibitor, a predetermined concentration of an inhibitor was added upon incubation of the proteoliposomes.

For the next data set, the target named is T2, mouse SLC17A9 (mSLC17A9) (Mus musculus, UniProt Q8VCL5).
T2 construct: His6 (from pDEST10 vector) (N); made in house; host or cells: insect cells, baculovirus system (Sf9 named for virus production)
T2 sequence (Q8VCL5 1-447): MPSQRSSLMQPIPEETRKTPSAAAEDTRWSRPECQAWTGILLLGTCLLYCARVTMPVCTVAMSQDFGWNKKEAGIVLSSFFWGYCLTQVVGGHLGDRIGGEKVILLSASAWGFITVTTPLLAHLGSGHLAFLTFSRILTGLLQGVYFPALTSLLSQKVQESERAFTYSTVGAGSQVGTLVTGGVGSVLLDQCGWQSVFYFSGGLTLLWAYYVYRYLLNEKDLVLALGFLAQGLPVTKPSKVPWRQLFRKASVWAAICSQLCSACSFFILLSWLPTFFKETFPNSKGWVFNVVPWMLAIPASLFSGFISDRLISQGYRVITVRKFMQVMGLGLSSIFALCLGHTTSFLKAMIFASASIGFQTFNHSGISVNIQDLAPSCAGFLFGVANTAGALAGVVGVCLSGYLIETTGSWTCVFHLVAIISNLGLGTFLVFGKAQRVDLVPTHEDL
Description: ATP transport by reconstituted mSLC17A9 protein proteoliposomes. In kind it is biochemical. Particulars: added at 2 mM, uptake for 2 minutes, FIG. 22. The protocol: 20 μg of the purified mSLC17A9 protein and 0.5 mg of soybean-derived lipids were mixed, and the mixture was incubated at −80° C. for 5 minutes or longer. This mixture was thawed quickly by holding the tube in the hands, and was diluted 30-fold with a buffer solution containing 20 mM MOPS-Tris (pH 7.0), 0.15M sodium acetate, 2 mM magnesium acetate and 0.5 mM DTT. This dilution was centrifuged at 200,000×g at 4° C. for one hour, the supernatant was discarded, and the precipitate was resuspended in a buffer solution containing 20 mM MOPS-Tris (pH 7.0), 0.15M sodium acetate, 2 mM magnesium acetate and 0.5 mM DTT, to achieve reconstitution. […] The mixture was further incubated for 2 minutes. […] Furthermore, in an inhibitor test, an inhibitor at a predetermined concentration was added in the case of incubating the proteoliposomes.

Substrate in data set [1]: Nc1ncnc2c1ncn2[C@@H]1O[C@H](COP(=O)(O)OP(=O)(O)OP(=O)(O)O)[C@@H](O)[C@H]1O
The experiment in a line: cells, lysate or membranes named. Particulars: other: human SLC17A9 proteoliposomes, ATP uptake at various concentrations; pH 7.0; 27.0 °C.

Substrate in data set [2]: Nc1ncnc2c1ncn2[C@@H]1O[C@H](COP(=O)(O)OP(=O)(O)OP(=O)(O)O)[C@@H](O)[C@H]1O
The experiment in a line: purified protein, by the assay type. Particulars: other: reconstituted mSLC17A9, membrane potential-dependent transport, calculated using KaleidaGraph; pH 7.0; 27.0 °C.

Regarding “SLC17A9 RNAi: RNAi of sequence UAUUCGAGAGAAUGUCACG (SEQ ID NO: 15) for knockdown of SLC17A9 (listed as RNA, chemistry not given here)”, the “amount of SLC17A9 mRNA” value in the data set with SLC17A9 mRNA was “decreased”. The “KCl-dependent ATP release” value in the data set with PC12 cells is given as “suppressed”.

As for `Nc1nc2c(ncn2[C@@H]2O[C@H](COP(=O)(O)OP(=O)(O)OP(=O)(O)O)[C@@H](O)[C@H]2O)c(=O)[nH]1` [GTP], at human SLC17A9, the “uptake of ADP and GTP into SLC17A9 reconstituted proteoliposomes over time” value is on record as “actually taken up”; the “effect of nucleotides on ATP transport” value was “recognized as transport substrates”. The “inhibition of radioactive ATP uptake” value on mouse SLC17A9 (mSLC17A9) is reported as “compete with ATP”.

For `Nc1ncnc2c1ncn2[C@@H]1O[C@H](COP(=O)(O)OP(=O)(O)O)[C@@H](O)[C@H]1O` [ADP, adenosine diphosphate], on human SLC17A9, the “uptake of ADP and GTP into SLC17A9 reconstituted proteoliposomes over time” value is given as “actually taken up”; the “effect of nucleotides on ATP transport” value is recorded as “recognized as transport substrates”. In addition, at mouse SLC17A9 (mSLC17A9), the “inhibition of radioactive ATP uptake” value is recorded as “compete with ATP”.

B1: human SLC17A9 (Homo sapiens; N228S) (protein)
chain: MTLTSRRQDSQEARPECQAWTGTLLLGTCLLYCARSSMPICTVSMSQDFGWNKKEAGIVLSSFFWGYCLTQVVGGHLGDRIGGEKVILLSASAWGSITAVTPLLAHLSSAHLAFMTFSRILMGLLQGVYFPALTSLLSQKVRESERAFTYSIVGAGSQFGTLLTGAVGSLLLEWYGWQSIFYFSGGLTLLWVWYVYRYLLSEKDLILALGVLAQSRPVSRHSRVPWRRLFRKPAVWAAVVSQLSAACSFFILLSWLPTFFEETFPDAKGWIFNVVPWLVAIPASLFSGFLSDHLINQGYRAITVRKLMQGMGLGLSSVFALCLGHTSSFCESVVFASASIGLQTFNHSGISVNIQDLAPSCAGFLFGVANTAGALAGVVGVCLGGYLMETTGSWTCLFNLVAIISNLGLCTFLVFGQAQRVDLSSTHEDL
One may read the Km as the concentration of substrate that gives half-maximal velocity. On to B1, for which, in data set [1], the Km is 800 µM.

B2: mouse SLC17A9 (mSLC17A9) (Mus musculus) (protein)
chain: MPSQRSSLMQPIPEETRKTPSAAAEDTRWSRPECQAWTGILLLGTCLLYCARVTMPVCTVAMSQDFGWNKKEAGIVLSSFFWGYCLTQVVGGHLGDRIGGEKVILLSASAWGFITVTTPLLAHLGSGHLAFLTFSRILTGLLQGVYFPALTSLLSQKVQESERAFTYSTVGAGSQVGTLVTGGVGSVLLDQCGWQSVFYFSGGLTLLWAYYVYRYLLNEKDLVLALGFLAQGLPVTKPSKVPWRQLFRKASVWAAICSQLCSACSFFILLSWLPTFFKETFPNSKGWVFNVVPWMLAIPASLFSGFISDRLISQGYRVITVRKFMQVMGLGLSSIFALCLGHTTSFLKAMIFASASIGFQTFNHSGISVNIQDLAPSCAGFLFGVANTAGALAGVVGVCLSGYLIETTGSWTCVFHLVAIISNLGLGTFLVFGKAQRVDLVPTHEDL
For B2, in data set [2], the Km is 230 µM and the Vmax is 23.8 nmol/min/mg of protein.
